Results taken from PubChem BioAssay AID330 (DTP/NCI, 2004).
Several values for one entry are separate records, joined by “and”; a condition that tells them apart may be missing. Equal values may be shown once. Toxic doses and inconclusive results are not listed. Rule for the calls: active = survival T/C of 150% or more; inactive = T/C below 125% in these data.

System: P388 leukemia ip, CD2F1 mice, survival T/C
Assay: NCI In Vivo Anticancer Drug Screen. Data for tumor model P388 Leukemia (intraperitoneal) in CD2F1 (CDF1) mice
Conditions: endpoint: median survival time, higher = longer survival
Outline: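 Mice carrying the transplanted tumor received test compound or vehicle. Survival was recorded in each group, and the value is the treated-group measurement divided by that of the vehicle-treated control group.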

[1] = dose: 50.0 mg/kg/injection, schedule: Q01DX005 (ip), vehicle: Klucel (hydroxypropylcellulose) (HPC)
[2] = dose: 100.0 mg/kg/injection, schedule: Q01DX005 (ip), vehicle: Klucel (hydroxypropylcellulose) (HPC)
[3] = dose: 60.0 mg/kg/injection, schedule: Q01DX005 (ip), vehicle: saline with Tween-80
[4] = dose: 50.0 mg/kg/injection, schedule: Q01DX009 (ip), vehicle: saline
[5] = dose: 100.0 mg/kg/injection, schedule: Q01DX009 (ip), vehicle: saline
[6] = dose: 200.0 mg/kg/injection, schedule: Q01DX009 (ip), vehicle: saline
[7] = dose: 50.0 mg/kg/injection, schedule: Q01DX005 (ip), vehicle: saline with Tween-80
[8] = dose: 100.0 mg/kg/injection, schedule: Q01DX005 (ip), vehicle: saline with Tween-80
[9] = dose: 200.0 mg/kg/injection, schedule: Q01DX005 (ip), vehicle: saline with Tween-80
[10] = dose: 120.0 mg/kg/injection, schedule: Q01DX005 (ip), vehicle: saline with Tween-80
[11] = dose: 240.0 mg/kg/injection, schedule: Q01DX005 (ip), vehicle: saline with Tween-80
[12] = dose: 12.5 mg/kg/injection, schedule: Q01DX005 (ip), vehicle: Klucel (hydroxypropylcellulose) (HPC)
[13] = dose: 100.0 mg/kg/injection, schedule: Q01DX009 (ip), vehicle: saline with Tween-80
[14] = dose: 200.0 mg/kg/injection, schedule: Q01DX009 (ip), vehicle: saline with Tween-80
[15] = dose: 50.0 mg/kg/injection, schedule: Q01DX009 (ip), vehicle: saline with Tween-80

Measured: T/C

Cc1nc(C)c2c(C)[nH]c(-c3ccccc3)c2n1
inactive: dose: 25.0 mg/kg/injection, schedule: Q04DX002 (ip), vehicle: Klucel (hydroxypropylcellulose) (HPC) 102 % of control | dose: 50.0 mg/kg/injection, schedule: Q04DX002 (ip), vehicle: Klucel (hydroxypropylcellulose) (HPC) 101 % of control | dose: 100.0 mg/kg/injection, schedule: Q04DX002 (ip), vehicle: Klucel (hydroxypropylcellulose) (HPC) 108 % of control | dose: 200.0 mg/kg/injection, schedule: Q04DX002 (ip), vehicle: Klucel (hydroxypropylcellulose) (HPC) 104 % of control

CC1(C)CC(=O)C(C(=O)c2ccccc2)=[N+]1[O-]
inactive: [1] 97 % of control | [2] 100 % of control | dose: 200.0 mg/kg/injection, schedule: Q01DX005 (ip), vehicle: Klucel (hydroxypropylcellulose) (HPC) 99 % of control

CCCCCCCCCCCCCCCCCC(=O)NN
inactive: dose: 100.0 mg/kg/injection, schedule: Q04DX003 (ip), vehicle: saline with Tween-80 94 % of control | dose: 200.0 mg/kg/injection, schedule: Q04DX003 (ip), vehicle: saline with Tween-80 87 % of control

CCc1nc(N)nc(N)c1-c1ccc(NCCCN)c([N+](=O)[O-])c1
inactive: dose: 30.0 mg/kg/injection, schedule: Q01DX005 (ip), vehicle: saline with Tween-80 106 % of control | [3] 108 % of control and 110 % of control

O=C(O)C(=O)O.[U]
inactive: dose: 12.5 mg/kg/injection, schedule: Q01DX009 (ip), vehicle: saline with Tween-80 100 % of control

CC12CCC(Cl)CC1=CCC1C2CCC2(C)C1CCCN2CCCl (stereo unspecified)
inactive: dose: 6.25 mg/kg/injection, schedule: Q01DX001 (ip), vehicle: saline 99 % of control | dose: 12.5 mg/kg/injection, schedule: Q01DX001 (ip), vehicle: saline 98 % of control | dose: 25.0 mg/kg/injection, schedule: Q01DX001 (ip), vehicle: saline with Tween-80 109 % of control | dose: 25.0 mg/kg/injection, schedule: Q01DX001 (ip), vehicle: saline 98 % of control and 104 % of control

C=C(C)C(=O)OC1CCC2Cc3occ(C)c3C(OC(=O)C=C(C)C)C2(C)C1C (stereo unspecified)
inactive: dose: 10.0 mg/kg/injection, schedule: Q01DX009 (ip), vehicle: saline with Tween-80 103 % of control | dose: 20.0 mg/kg/injection, schedule: Q01DX009 (ip), vehicle: saline with Tween-80 101 % of control | dose: 40.0 mg/kg/injection, schedule: Q01DX009 (ip), vehicle: saline with Tween-80 100 % of control | dose: 80.0 mg/kg/injection, schedule: Q01DX009 (ip), vehicle: saline with Tween-80 98 % of control

c1ccc(Nc2ccc(CN3CCCC3)cc2)cc1
inactive: dose: 60.0 mg/kg/injection, schedule: Q01DX005 (ip), vehicle: Klucel (hydroxypropylcellulose) (HPC) 107 % of control | dose: 120.0 mg/kg/injection, schedule: Q01DX005 (ip), vehicle: Klucel (hydroxypropylcellulose) (HPC) 107 % of control | dose: 240.0 mg/kg/injection, schedule: Q01DX005 (ip), vehicle: Klucel (hydroxypropylcellulose) (HPC) 107 % of control

CCCCCCC(/C=C/c1ccc(Cl)c(Cl)c1)=N\NC(N)=O
inactive: [4] 104 % of control | [5] 100 % of control | [6] 98 % of control

C/C(Cl)=C\C(=O)c1c(C)[nH]n(-c2ccccc2)c1=O
inactive: [1] 99 % of control | [2] 111 % of control

CCCCCCCCCCCC1=C(O)C(=O)C(I)=C(O)C1=O
inactive: [7] 108 % of control | [8] 100 % of control and 108 % of control | [9] 108 % of control

N=C1N=Nc2nc(C3(c4nc5n(c4O)C(=N)N=N5)Cc4ccccc4C3=O)c(O)n21 (stereo unspecified)
inactive: dose: 60.0 mg/kg/injection, schedule: Q01DX005 (ip), vehicle: saline 96 % of control | dose: 120.0 mg/kg/injection, schedule: Q01DX005 (ip), vehicle: saline 103 % of control | dose: 240.0 mg/kg/injection, schedule: Q01DX005 (ip), vehicle: saline 108 % of control

O=c1cnn(C2OC(CO)C(O)C2Cl)c(=O)[nH]1 (stereo unspecified)
inactive: dose: 4.06 mg/kg/injection, schedule: Q01DX009 (ip), vehicle: saline 99 % of control | dose: 8.12 mg/kg/injection, schedule: Q01DX009 (ip), vehicle: saline 108 % of control | dose: 16.25 mg/kg/injection, schedule: Q01DX009 (ip), vehicle: saline 101 % of control | dose: 32.5 mg/kg/injection, schedule: Q01DX009 (ip), vehicle: saline 101 % of control | dose: 65.0 mg/kg/injection, schedule: Q01DX009 (ip), vehicle: saline 106 % of control | dose: 130.0 mg/kg/injection, schedule: Q01DX009 (ip), vehicle: saline 102 % of control

CCN(CC)C(=O)N1C=CC(c2ccccc2)C=C1
inactive: [3] 103 % of control | [10] 106 % of control | [11] 108 % of control

CC(=O)NC(Cn1cc(C(N)=O)ccc1=N)C(=O)O (stereo unspecified)
inactive: dose: 1.56 mg/kg/injection, schedule: Q01DX005 (ip), vehicle: Klucel (hydroxypropylcellulose) (HPC) 102 % of control | dose: 3.12 mg/kg/injection, schedule: Q01DX005 (ip), vehicle: Klucel (hydroxypropylcellulose) (HPC) 108 % of control and 114 % of control | dose: 6.25 mg/kg/injection, schedule: Q01DX005 (ip), vehicle: Klucel (hydroxypropylcellulose) (HPC) 115 % of control and 122 % of control | [12] 121 % of control

O=C(NCCCl)Oc1ccc(Cl)cc1Cl
inactive: [12] 100 % of control | dose: 25.0 mg/kg/injection, schedule: Q01DX005 (ip), vehicle: Klucel (hydroxypropylcellulose) (HPC) 106 % of control | [1] 108 % of control and 113 % of control

O=C(O)CCCC(=O)c1ccccc1
inactive: dose: 25.0 mg/kg/injection, schedule: Q01DX009 (ip), vehicle: saline 105 % of control | [4] 100 % of control | [5] 101 % of control | [6] 108 % of control

COC(=O)C1(CC(=O)c2ccccn2)NC(=S)NC(=O)C1C#N (stereo unspecified)
inactive: [3] 100 % of control | [10] 97 % of control | [11] 97 % of control

Cn1c(=O)c2c(nc(Cl)n2Cc2ccc([N+](=O)[O-])cc2)n(C)c1=O
inactive: dose: 100.0 mg/kg/injection, schedule: Q04DX003 (ip), vehicle: saline 95 % of control | dose: 200.0 mg/kg/injection, schedule: Q04DX003 (ip), vehicle: saline 92 % of control | dose: 400.0 mg/kg/injection, schedule: Q04DX003 (ip), vehicle: saline 90 % of control

Cc1nn(C(=S)S)c(C)c1N=Nc1cc(Cl)ccc1Cl
inactive: [7] 100 % of control | [8] 95 % of control | [9] 95 % of control

Cc1ccc(S(=O)(=O)ONNc2nccc3ccccc23)cc1
inactive: dose: 100.0 mg/kg/injection, schedule: Q04DX002 (ip), vehicle: saline 103 % of control | dose: 200.0 mg/kg/injection, schedule: Q04DX002 (ip), vehicle: saline 96 % of control | dose: 400.0 mg/kg/injection, schedule: Q04DX002 (ip), vehicle: saline 97 % of control

O=C(c1ccccc1)c1cc([N+](=O)[O-])cc([N+](=O)[O-])c1
inactive: [13] 104 % of control | [14] 97 % of control | dose: 400.0 mg/kg/injection, schedule: Q01DX009 (ip), vehicle: saline with Tween-80 97 % of control

Nc1nc(N)nc(-c2ccccc2Cl)n1
inactive: [4] 117 % of control | [5] 93 % of control | [6] 117 % of control

Cc1nc(C2(O)C(C3COC(C)(C)O3)OC3OC(C)(C)OC32)no1 (stereo unspecified)
inactive: [3] 100 % of control | [10] 100 % of control | [11] 100 % of control

CC1SC(C)(C)N(C=O)C1C(=O)O (stereo unspecified)
inactive: [15] 99 % of control and 100 % of control | [13] 101 % of control and 91 % of control | [14] 106 % of control and 94 % of control

OCC1CC=CCC1CO (stereo unspecified)
inactive: [15] 96 % of control | [13] 101 % of control | [14] 100 % of control

COC(=O)/C(=C/c1ccccc1)N=[N+]=[N-]
inactive: [3] 107 % of control | [10] 110 % of control | [11] 117 % of control

CC(=O)OCC12CCC(C)=CC1OC1C(=O)CC2(C)C12CO2 (stereo unspecified)
inactive: dose: 0.5 mg/kg/injection, schedule: Q01DX009 (ip), vehicle: saline 100 % of control | dose: 1.0 mg/kg/injection, schedule: Q01DX009 (ip), vehicle: saline 101 % of control | dose: 2.0 mg/kg/injection, schedule: Q01DX009 (ip), vehicle: saline 94 % of control | dose: 4.0 mg/kg/injection, schedule: Q01DX009 (ip), vehicle: saline 110 % of control

NNC1=Nc2ccccc2N=C2CCSCC21 (stereo unspecified)
inactive: dose: 50.0 mg/kg/injection, schedule: Q01DX009 (ip), vehicle: Klucel (hydroxypropylcellulose) (HPC) 97 % of control | dose: 100.0 mg/kg/injection, schedule: Q01DX009 (ip), vehicle: Klucel (hydroxypropylcellulose) (HPC) 112 % of control | dose: 200.0 mg/kg/injection, schedule: Q01DX009 (ip), vehicle: Klucel (hydroxypropylcellulose) (HPC) 108 % of control
